Several values for one entry are separate records, joined by “and”; a condition that tells them apart may be missing. Identical values can stand only once. Like-named read-outs stand apart in the source and are kept apart here.
How the values were obtained:
[1] = in vitro; conditions: human
[2] = system: HCoV-229E; assay: MTT-based antiviral assay (protection from virus-induced CPE) in HCoV-229E-infected MRC-5 cells; format: cell-based, Human Coronavirus strain 229E; conditions: for % Antiviral Activity (Range) / EC50: HCoV-229E-infected MRC-5, 6 days; for % Antiviral Activity (Range): range over the assay conc. range of each compound; for maximum antiviral effect: MRC-5, maximum over concentrations tested; for EC50: MRC5, 144 h, no unit in head (assay conc. and CC50 columns in µM)
[3] = system: HCoV-229E; assay: qRT-PCR viral load in supernatants of HCoV-229E-infected MRC-5 cells; format: cell-based, Human Coronavirus strain 229E
[4] = molecular target: recombinant SCoV-2 PLpro (Severe acute respiratory syndrome coronavirus 2, UniProt P0DTD1); assay: SCoV-2 PLpro inhibition assay (peptide-AMC fluorescence); format: biochemical, SARS-CoV-2; conditions: 60 μM peptide-AMC, 37°C, 45 min
[5] = system: MRC-5 cells
[6] = system: SCoV-2; assay: Immunofluorescence antiviral screening assay (SCoV-2 nucleocapsid staining) in Vero E6 cells; format: cell-based, SARS-CoV-2
Procedure: The antiviral activity of the selected compound against SCoV-2 was analysed by immunofluorescent assay in a 96-well plate. For this, ~10^4 Vero E6 cells per well were seeded and grown to ≥80% confluency. At this stage, cells in replicate wells were treated with a safe dose (identified from the cytotoxicity studies) of the selected compound or with 10μM Remdesivir. These assays also included the necessary negative controls for comparison. The cells were infected with SCoV-2 at 0.1 MOI and, post-30 h incubation, fixed in 4% paraformaldehyde, permeabilized with 0.3% Tween-20 and stained with anti-mouse mAb specific to SCoV-2 Nucleocapsid (primary) followed by staining with Alexafluor 568-labelled anti-mouse antibody (secondary). Prior to mounting, monolayers were treated with Hoechst 33342 to stain the nuclei and the images were captured using ImageXpress Micro Confocal (Molecular devices) at 10 × magnification (16 images/well). The data was analysed in MetaXpress software using a multi-wavelength cell scoring module and the cells double-positive for the viral nucleocapsid as well as nuclei were counted and compared with that in the controls.

[7] = system: Vero E6 cells; assay: Cytotoxicity assay in Vero E6 cells (Hoechst 33342 / Sytox orange imaging); conditions: for cytotoxicity: Vero E6
[8] = as above; conditions: African green monkey
[9] = system: SCoV-2; parameters: method as in Meyer et al., [2020]; conditions: at clinically relevant concentrations; ref Meyer et al., [2020]; cited from earlier work
[10] = system: PLpro; conditions: reported value, reference not printed at the place; cited from earlier work
[11] = in vitro; conditions: African green monkey, % Cell Viability, Vero E6, 30 h
[12] = HCoV-229E-infected MRC-5, 6 days, range over the assay conc. range
[13] = MRC-5 cells (human lung fibroblasts), uninfected
[14] = MRC-5, across the tested concentrations

In the case of NC(=O)c1nc(F)c[nH]c1=O [Favipiravir], the CC50 at 6 days [1] is reported as 665 µM, the cytotoxicity at 6 days [1] is reported as -8.1 to 67.5% and the “protection from virus-induced CPE” value ([2]; 250 μM, HCoV-229E, MRC-5) is reported as “failed to show any obvious protection”. The “% Antiviral Activity (Range)” value [2] was -0.6 to +26.9%, the inhibition at 500 µM ([2]; Human coronavirus 229E, MRC5, 500 μM, HCoV-229E, MRC-5, read-out: cells in which virus-induced CPE was inhibited) was ~17% and the “% Reduction in Viral Load (Range)” value [3, 12] was 0.0 to +81.6%. For the same molecule, the “Log10 Reduction in Viral Load (Range)” value [3, 12] was “+0.74 to 0.0 Log10”.
With C[C@H]1O[C@H](O[C@H]2[C@H](O)[C@@H](O)[C@@H](O[C@H]3[C@H](O)[C@@H](O)C(O)O[C@@H]3CO)O[C@@H]2CO)[C@H](O)[C@@H](O)[C@@H]1N[C@H]1C=C(CO)[C@@H](O)[C@H](O)[C@H]1O (stereo partly shown) [Acarbose] the IC50 ([4]; IC50, 100 nM PLpro) was 2000 ± 280 µM, the CC50 at 6 days [1] was > 7750 µM and the cytotoxicity at 6 days [1] was -15 to 7%. For the same molecule, the maximum antiviral effect ([2]; HCoV-229E) was “about 8%”, the “% Antiviral Activity (Range)” value [2] was “+0.3 to +7.2%” and the EC50 ([2]; Human coronavirus 229E) was > 7750 µM. The maximum cytotoxicity ([5]; human) was < 15%.
With Cc1cc2nc3c(=O)[nH]c(=O)nc-3n(C[C@H](O)[C@H](O)[C@H](O)COP(=O)(O)OP(=O)(O)OC[C@H]3O[C@@H](n4cnc5c(N)ncnc54)[C@H](O)[C@@H]3O)c2cc1C [FAD, Flavin adenine dinucleotide] the IC50 ([4]; IC50, 100 nM PLpro) was ~127 µM and 127 µM, the CC50 at 6 days [1, 13] was > 1200 µM and the cytotoxicity at 6 days [1, 13] was -10.5 to 12.7%. For the same molecule, the maximum antiviral effect ([2]; HCoV-229E) was “about 8%”, the “% Antiviral Activity (Range)” value [2] was -1.3 to +8.1% and the EC50 ([2]; Human coronavirus 229E) was > 1200 µM. The maximum cytotoxicity [5, 14] was < 15%.
In the case of Cc1cccc(C)c1OCC(=O)N[C@@H](Cc1ccccc1)[C@@H](O)C[C@H](Cc1ccccc1)NC(=O)[C@H](C(C)C)N1CCCNC1=O [Lopinavir], the IC50 ([4]; IC50, 100 nM PLpro) is reported as 1000 ± 100 µM, the CC50 at 6 days [1] is reported as 67 µM and the cytotoxicity at 6 days [1] is reported as -9.6 to 99.9%. For the same molecule, the “Selectivity Index (CC50/EC50)” value ([2]; HCoV-229E, MRC-5) was 2.03, the “% Antiviral Activity (Range)” value [2] was -6.3 to +72.4% and the EC50 ([2]; Human coronavirus 229E) was 33 µM. The “log10 inhibition / reduction in viral load” value ([3]; 40 μM, HCoV-229E, MRC-5) was ~ 1.4 log10 and 1.42 log10, the “reduction in viral titers” value ([3]; 40 μM, HCoV-229E, MRC-5) was “about 96%” and the “% Reduction in Viral Load (Range)” value [3, 12] was “+96.2 to +29.1%”. The “Log10 Reduction in Viral Load (Range)” value [3, 12] was “+1.42 to +0.15 Log10”.
In the case of OC[C@@H](O)[C@@H](O[C@@H]1O[C@H](CO)[C@H](O)[C@H](O)[C@H]1O)[C@H](O)[C@@H](O)CO [Lactitol], the IC50 ([4]; IC50, 100 nM PLpro) is reported as 8800 ± 500 µM, the CC50 at 6 days [1, 13] is reported as > 2900 µM and the cytotoxicity at 6 days [1, 13] is reported as -8.9 to 1.8%. For the same molecule, the maximum antiviral effect ([2]; HCoV-229E) was “about 8%”, the “% Antiviral Activity (Range)” value [2] was -1.2 to +5.3% and the EC50 ([2]; Human coronavirus 229E) was > 2900 µM. For the same molecule, the maximum cytotoxicity [5, 14] was < 15%.
With OC(c1cc(C(F)(F)F)nc2c(C(F)(F)F)cccc12)C1CCCCN1 (stereo not shown) [Mefloquine] the “% Inhibition (SCoV-2 N-positive cells)” value ([6]; 0.5 µM (500 nM), SCoV-2-infected Vero E6, 30 h, 0.5 µM) was 30% and 30.6%, the inhibition at 0.5 µM ([6]; Severe acute respiratory syndrome coronavirus 2, Vero C1008, 30 h, read-out: % Inhibition (SCoV-2 N-positive cells), 0.5 µM (500 nM), SCoV-2-infected Vero E6, 30 h) was ~31% and the IC50 ([4]; IC50, 100 nM PLpro) was ~459 µM and 459 µM. It also gave a CC50 at 6 days [1, 13] of 173 µM, a cytotoxicity at 6 days [1, 13] of 11.5 to 93.2% and a cytotoxicity ([7]; 0.5 μM) of 7%. The cytotoxicity ([7]; 5 μM) was “about 45%”, the viability at 30 h, 0.5 µM [8] was 93.2% and the viability at 30 h, 5 µM [8] was 45.6%. For the same molecule, the “protection from virus-induced CPE” value ([2]; 120 μM, HCoV-229E, MRC-5) was ~ 62% and ~ 60%, the “% Antiviral Activity (Range)” value [2] was -0.4 to +60.6% and the EC50 ([2]; Human coronavirus 229E) was 108 µM. For the same molecule, the “log10 inhibition of viral titers” value ([3]; 120 μM, HCoV-229E, MRC-5) was ~0.8 log10, the “reduction in viral titers” value ([3]; 120 μM, HCoV-229E, MRC-5) was 84.7% and the “% Reduction in Viral Load (Range)” value [3, 12] was “+84.7 to +38.4%”. For the same molecule, the “Log10 Reduction in Viral Load (Range)” value [3, 12] was “+0.81 to +0.21 Log10”.
In the case of CC(C)CN(C[C@@H](O)[C@H](Cc1ccccc1)NC(=O)O[C@H]1CO[C@H]2OCC[C@H]21)S(=O)(=O)c1ccc(N)cc1 [Darunavir], the IC50 ([4]; 100 nM PLpro, read-out: IC50) is reported as 1320 ± 200 µM, the cytotoxicity [1] is reported as -14.4 to 97.2% and the viability [1] is reported as 44.5%. The “% Reduction in Viral Load (Range)” value [3] was 0.0 to +97.6%, the “Log10 Reduction in Viral Load (Range)” value [3] was 0.0 to +1.62 Log10 and the “log10 inhibition / reduction in viral load” value [3] was 1.42 log10. The “reduction in viral titers” value [3] was “about 96%” and the “activity against SCoV-2 (in words)” value [9] was “completely ineffective”.
With Cc1ccc(N)cc1C(=O)N[C@H](C)c1cccc2ccccc12 [GRL0617, (R)-5-amino-2-methyl-N-(1-(naphthalen-1-yl)ethyl) benzamide] the CC50 at 6 days [1] was 137 µM, the cytotoxicity at 6 days [1] was 6.2 to 76% and the “% Antiviral Activity (Range)” value [2] was -1.9 to +33.7%. The “% Reduction in Viral Load (Range)” value [3, 12] was “Inconsistent”, the “Log10 Reduction in Viral Load (Range)” value [3, 12] was “Inconsistent” and the IC50 [10] was […].
With C[C@@H]1O[C@@H](OC[C@H]2O[C@@H](Oc3c(-c4ccc(O)c(O)c4)oc4cc(O)cc(O)c4c3=O)[C@H](O)[C@@H](O)[C@@H]2O)[C@H](O)[C@H](O)[C@H]1O [Rutin] the CC50 [1] was 351 µM, the cytotoxicity [1] was -5.9 to 89.5% and the “virus-infected cells protected from virus-induced CPE” value ([2]; HCoV-229E, MRC-5, concentration not stated at the place) was “about 37%”. The “% Antiviral Activity (Range)” value [2] was -1.1 to +37.1%, the “log10 inhibition / reduction in viral titers” value [3] was ~0.2 log10 and the “reduction in viral titers” value [3] was 38.44%. For the same molecule, the “% Reduction in Viral Load (Range)” value [3, 12] was “+38.4 to -455.4%” and the “Log10 Reduction in Viral Load (Range)” value [3, 12] was “+0.21 to -0.74 Log10”.
For CC(C)c1nc(CN(C)C(=O)N[C@H](C(=O)N[C@@H](Cc2ccccc2)C[C@H](O)[C@H](Cc2ccccc2)NC(=O)OCc2cncs2)C(C)C)cs1 [Ritonavir], the cytotoxicity at 6 days [1, 13] was 20.6 to 100%, the “protection from virus-induced CPE” value ([2]; 70 μM, HCoV-229E, MRC-5) was “about 35%” and the “% Antiviral Activity (Range)” value [2] was -3.8 to +36.4%. The “log10 inhibition / reduction in viral load” value ([3]; 70 μM, HCoV-229E, MRC-5) was ~0.6 log10, the “reduction in viral titers” value ([3]; 70 μM, HCoV-229E, MRC-5) was 73.3% and the “% Reduction in Viral Load (Range)” value [3, 12] was “+73.3 to -625.5%”. The “Log10 Reduction in Viral Load (Range)” value [3, 12] was “+0.57 to -0.86 Log10”.
In the case of CCC(CC)COC(=O)[C@H](C)N[P@](=O)(OC[C@H]1O[C@@](C#N)(c2ccc3c(N)ncnn23)[C@H](O)[C@@H]1O)Oc1ccccc1 [Remdesivir], the “% Inhibition (SCoV-2 N-positive cells)” value ([6]; 10 µM, SCoV-2-infected Vero E6, 30 h) is reported as 99.2%, the “cells protected from SCoV-2-induced CPE” value ([6]; 10 μM, Vero E6) is reported as > 99% and the inhibition at 10 µM ([6]; Severe acute respiratory syndrome coronavirus 2, Vero C1008, 30 h, 10 µM, SCoV-2-infected Vero E6, 30 h, read-out: % Inhibition (SCoV-2 N-positive cells)) is reported as > 99%. For the same molecule, the viability at 10 µM [11] was > 99% and the “% Cell Viability” value ([7]; 10 µM, Vero E6, 30 h) was 99.23%.
